Results as given in PMC11314561, “Design and Synthesis of Novel Aminoindazole-pyrrolo[2,3-b]pyridine Inhibitors of IKKα That Selectively Perturb Cellular Non-Canonical NF-κB Signalling” (Molecules, 2024).
In brackets after ≈: the same amount, converted by molar mass.

Key:
panel of 231 kinases = assay: Kinome profiling, summary; format: biochemical, human; settings: 1 μM
Description: We profiled three compounds from the series across the kinome (Table S1).
Ta b l e S1. The % inhibition of compounds 4, 5r [SU1261], and 6g [SU1349] against a
panel of kinase enzymes. We proϐiled three compounds from the series across 231
kinases. For SU1349, given its structural similarity with SU1261, we selected 98 from the
Tested kinase % inhibiƟon

[1] = test system: p105 (Ser932) phosphorylation in PC-3M cells; assay: TNFα-stimulated p105 (Ser932) phosphorylation, Western blotting; format: cell-based; settings: 0.1–10 µM
Method: (§1) U2OS cells were cultured in McCoy’s 5A Modified Medium, and PC-3M-Luc-C6 prostate cancer cells were cultured in Minimum Essential Medium (MEM), each containing 10% (v/v) Foetal Calf Serum (FCS), L-glutamine ([…]), and penicillin/streptomycin (250 units/mL; 100 μg/mL) and incubated in a humidified atmosphere at 37 °C with 5% (v/v) CO2. Cells were grown to near confluence and prior to experimentation rendered quiescent by serum deprivation for 24 h.
(§2) To examine the potential impact of compounds on canonical NF-κB signalling, cells were then exposed to vehicle (DMSO; 0.05% (v/v)) or increasing concentrations of compounds (0.01–30 µM) for 1 h prior to treatment with TNF⍺ (20 ng/mL) for 30 min. Whole-cell extracts were prepared, and the status of IκB⍺, phospho-p65 (Ser536), p65, and phospho-p105 ([…]) was also assessed by Western blotting.
(§3) Each figure/panel of Western blotting data represents one of at least three separate experiments. Western blots were scanned and imaged using Adobe Photoshop 5.0.2 software and polypeptide bands were semi-quantified by scanning densitometry using the Scion Image program. Data were normalised to fold expression/inhibition relative to ‘agonist plus vehicle’ treatment and expressed as mean ± s.e.m. IC50 values were established by curve fitting using the Hill equation. […]

Turbidimetric solubility = format: physicochemical; settings: pH 7.4, aqueous buffer, kinetic from dmso stock, 0.01 M phosphate-buffered saline pH7.4
Method: Pharmacokinetic studies were contracted to Sygnature Discovery Limited. Turbidimetric Solubility was determined by diluting compound solutions (1 μM, 3 μM, 10 μM, 30 μM, 100 μM) prepared in DMSO into 0.01 M phosphate-buffered saline pH7.4. Turbidimetry was used as the endpoint by measuring absorbance at 620 nm.

IGF-1R(h) = IGF-1R(h) (Homo sapiens, UniProt P08069); assay: kinase panel; format: biochemical
How it was run: (§4)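 Values are percent inhibition from kinome-wide profiling of three series compounds across 231 kinases, with a structurally similar analogue tested on only 98 selected kinases.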

eEF-2K(h) = eEF-2K(h) (Homo sapiens, UniProt O00418); assay: kinase panel; format: biochemical
How it was run: as §4

ULK2(h) = ULK2(h) (Homo sapiens, UniProt Q8IYT8); assay: kinase panel; format: biochemical
How it was run: as §4

PKCβII(h) = PKCβII(h) (Homo sapiens, UniProt P05771); assay: kinase panel; format: biochemical
How it was run: as §4

EphB4(h) = EphB4(h) (Homo sapiens, UniProt P54760); assay: kinase panel; format: biochemical
How it was run: as §4

DDR2(h) = DDR2(h) (Homo sapiens, UniProt Q16832); assay: kinase panel; format: biochemical
How it was run: as §4

PKG1α(h) = PKG1α(h) (Homo sapiens, UniProt Q13976); assay: kinase panel; format: biochemical
How it was run: as §4

MKK6(h) = MKK6(h) (Homo sapiens, UniProt P52564); assay: kinase panel; format: biochemical
How it was run: as §4

IRR(h) = IRR(h) (Homo sapiens, UniProt P14616); assay: kinase panel; format: biochemical
How it was run: as §4

Hck(h) = Hck(h) (Homo sapiens, UniProt P08631); assay: kinase panel; format: biochemical
How it was run: as §4

RIPK2(h) = RIPK2(h) (Homo sapiens, UniProt O43353); assay: kinase panel; format: biochemical
How it was run: as §4

TLK2(h) = TLK2(h) (Homo sapiens, UniProt Q86UE8); assay: kinase panel; format: biochemical
How it was run: as §4

EphA5(h) = EphA5(h) (Homo sapiens, UniProt P54756); assay: kinase panel; format: biochemical
How it was run: as §4

LKB1(h) = LKB1(h) (Homo sapiens, UniProt Q15831); assay: kinase panel; format: biochemical
How it was run: as §4

FAK(h) = FAK(h) (Homo sapiens, UniProt Q05397); assay: kinase panel; format: biochemical
How it was run: as §4

PAK5(h) = PAK5(h) (Homo sapiens, UniProt Q9P286); assay: kinase panel; format: biochemical
How it was run: as §4

cKit(h) = cKit(h) (Homo sapiens, UniProt P10721); assay: kinase panel; format: biochemical
How it was run: as §4

Mnk2(h) = Mnk2(h) (Homo sapiens, UniProt Q9HBH9); assay: kinase panel; format: biochemical
How it was run: as §4

Pyk2(h) = Pyk2(h) (Homo sapiens, UniProt Q14289); assay: kinase panel; format: biochemical
How it was run: as §4

[2] = test system: IκBα degradation in PC-3M cells; assay: TNFα-stimulated IκBα degradation, Western blotting; format: cell-based; settings: for effect on TNFα-stimulated IκBα degradation: PC-3M cells, 0.1–10 µM
Method: as §1, §2
as §3, with “s.e.m.” for “s.e.m. IC50 values were established by curve fitting using the Hill equation.”
Figure 14 Compound 5r [SU1261] inhibits LTα1β2-stimulated p100 phosphorylation (Ser866/870) but not TNFα-stimulated IkBα degradation, phosphorylation of p65 (Ser536), nor phosphorylation of p105 (Ser932) in PC-3M prostate cancer cells. […] (0.1–10 µM) for 1 h prior to treatment with LTα1β2 (15 ng/mL) for 4 h, and phospho-p100 (Ser866/870) in whole-cell extracts was assessed by Western blotting. […] (0.1–10 µM) for 1 h prior to treatment with TNFα (10 ng/mL) for 30 min, and IkBα degradation, phospho-p65 (Ser536), phospho-p105 (Ser932), and p65 expression in whole-cell extracts were assessed by Western blotting. […] Normalised data (n = 3) from semi-quantitative scanning densitometry were plotted relative to ‘agonist plus vehicle’ (LTα1β2 plus DMSO), and IC50 values were established by curve fitting using the Hill equation (see Figure S1D).

Sequence of EphA5(h) (P54756 25-1037): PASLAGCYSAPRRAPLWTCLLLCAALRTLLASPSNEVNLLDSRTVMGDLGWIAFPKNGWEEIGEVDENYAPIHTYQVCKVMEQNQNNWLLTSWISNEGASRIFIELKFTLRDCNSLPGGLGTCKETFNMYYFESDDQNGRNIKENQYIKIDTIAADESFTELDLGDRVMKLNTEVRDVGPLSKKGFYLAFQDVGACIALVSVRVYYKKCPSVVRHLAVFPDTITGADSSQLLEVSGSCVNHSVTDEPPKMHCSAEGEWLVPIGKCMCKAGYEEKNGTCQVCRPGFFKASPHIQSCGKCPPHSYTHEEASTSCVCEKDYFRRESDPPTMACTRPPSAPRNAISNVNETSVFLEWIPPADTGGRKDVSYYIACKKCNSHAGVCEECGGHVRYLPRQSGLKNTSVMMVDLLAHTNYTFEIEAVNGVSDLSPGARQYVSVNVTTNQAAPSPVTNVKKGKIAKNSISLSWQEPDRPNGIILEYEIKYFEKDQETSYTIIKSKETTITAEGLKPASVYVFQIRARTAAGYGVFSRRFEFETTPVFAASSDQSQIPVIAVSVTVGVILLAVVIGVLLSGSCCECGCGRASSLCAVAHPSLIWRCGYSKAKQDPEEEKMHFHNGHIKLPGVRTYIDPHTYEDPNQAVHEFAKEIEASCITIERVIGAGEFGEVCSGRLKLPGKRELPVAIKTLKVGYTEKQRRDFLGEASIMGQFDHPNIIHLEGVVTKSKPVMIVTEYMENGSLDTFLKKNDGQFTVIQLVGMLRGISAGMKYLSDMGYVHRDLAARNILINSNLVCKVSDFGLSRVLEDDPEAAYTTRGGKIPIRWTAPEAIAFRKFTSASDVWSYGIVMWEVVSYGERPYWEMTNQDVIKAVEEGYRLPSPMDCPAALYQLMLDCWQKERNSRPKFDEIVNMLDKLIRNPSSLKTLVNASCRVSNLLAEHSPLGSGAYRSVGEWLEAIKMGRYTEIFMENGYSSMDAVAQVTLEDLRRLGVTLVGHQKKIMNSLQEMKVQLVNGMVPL
Sequence of IGF-1R(h) (P08069 31-1367): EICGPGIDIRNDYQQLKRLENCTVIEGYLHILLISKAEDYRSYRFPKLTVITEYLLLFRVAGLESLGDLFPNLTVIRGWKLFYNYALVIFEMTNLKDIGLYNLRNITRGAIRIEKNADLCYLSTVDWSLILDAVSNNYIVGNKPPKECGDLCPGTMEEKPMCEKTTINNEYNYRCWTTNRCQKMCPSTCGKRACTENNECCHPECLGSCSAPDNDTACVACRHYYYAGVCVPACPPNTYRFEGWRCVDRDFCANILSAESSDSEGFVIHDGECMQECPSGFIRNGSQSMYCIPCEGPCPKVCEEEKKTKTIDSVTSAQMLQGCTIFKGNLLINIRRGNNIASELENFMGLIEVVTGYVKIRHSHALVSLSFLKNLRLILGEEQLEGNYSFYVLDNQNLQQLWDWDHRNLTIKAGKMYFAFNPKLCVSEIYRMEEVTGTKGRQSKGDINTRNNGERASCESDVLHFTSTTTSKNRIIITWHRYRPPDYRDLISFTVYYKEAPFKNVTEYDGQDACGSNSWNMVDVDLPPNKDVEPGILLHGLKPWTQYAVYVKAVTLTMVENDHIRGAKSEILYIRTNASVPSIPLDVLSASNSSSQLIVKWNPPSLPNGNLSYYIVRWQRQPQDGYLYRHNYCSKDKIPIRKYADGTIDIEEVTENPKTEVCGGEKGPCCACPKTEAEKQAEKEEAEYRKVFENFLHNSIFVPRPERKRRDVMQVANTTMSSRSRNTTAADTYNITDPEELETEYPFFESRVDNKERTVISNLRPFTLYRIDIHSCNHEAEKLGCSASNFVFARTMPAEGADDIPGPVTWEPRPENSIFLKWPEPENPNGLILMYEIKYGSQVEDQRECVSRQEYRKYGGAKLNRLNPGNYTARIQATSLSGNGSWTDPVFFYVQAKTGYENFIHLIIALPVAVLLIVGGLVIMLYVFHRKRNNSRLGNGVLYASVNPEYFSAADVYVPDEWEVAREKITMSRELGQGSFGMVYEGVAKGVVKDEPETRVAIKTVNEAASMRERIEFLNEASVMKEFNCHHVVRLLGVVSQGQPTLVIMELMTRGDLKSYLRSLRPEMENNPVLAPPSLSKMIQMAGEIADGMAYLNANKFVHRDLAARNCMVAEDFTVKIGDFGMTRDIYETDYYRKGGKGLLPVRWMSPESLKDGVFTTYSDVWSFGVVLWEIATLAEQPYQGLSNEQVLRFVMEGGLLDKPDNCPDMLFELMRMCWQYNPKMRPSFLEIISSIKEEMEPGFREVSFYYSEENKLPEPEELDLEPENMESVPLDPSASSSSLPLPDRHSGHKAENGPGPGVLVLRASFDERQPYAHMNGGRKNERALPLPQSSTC
Sequence of Mnk2(h) (Q9HBH9 whole entry): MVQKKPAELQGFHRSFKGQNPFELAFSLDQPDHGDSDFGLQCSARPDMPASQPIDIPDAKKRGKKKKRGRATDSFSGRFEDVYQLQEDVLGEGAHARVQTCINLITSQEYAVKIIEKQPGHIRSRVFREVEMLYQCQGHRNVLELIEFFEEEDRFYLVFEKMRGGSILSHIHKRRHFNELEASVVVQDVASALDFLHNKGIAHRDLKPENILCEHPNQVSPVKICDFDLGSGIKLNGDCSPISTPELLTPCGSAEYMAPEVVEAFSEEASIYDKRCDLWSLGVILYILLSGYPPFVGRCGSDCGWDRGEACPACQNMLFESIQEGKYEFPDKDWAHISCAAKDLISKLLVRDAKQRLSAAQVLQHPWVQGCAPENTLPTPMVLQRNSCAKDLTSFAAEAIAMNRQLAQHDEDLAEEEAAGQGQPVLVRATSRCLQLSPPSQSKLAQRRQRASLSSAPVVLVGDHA
Sequence of RIPK2(h) (O43353 whole entry): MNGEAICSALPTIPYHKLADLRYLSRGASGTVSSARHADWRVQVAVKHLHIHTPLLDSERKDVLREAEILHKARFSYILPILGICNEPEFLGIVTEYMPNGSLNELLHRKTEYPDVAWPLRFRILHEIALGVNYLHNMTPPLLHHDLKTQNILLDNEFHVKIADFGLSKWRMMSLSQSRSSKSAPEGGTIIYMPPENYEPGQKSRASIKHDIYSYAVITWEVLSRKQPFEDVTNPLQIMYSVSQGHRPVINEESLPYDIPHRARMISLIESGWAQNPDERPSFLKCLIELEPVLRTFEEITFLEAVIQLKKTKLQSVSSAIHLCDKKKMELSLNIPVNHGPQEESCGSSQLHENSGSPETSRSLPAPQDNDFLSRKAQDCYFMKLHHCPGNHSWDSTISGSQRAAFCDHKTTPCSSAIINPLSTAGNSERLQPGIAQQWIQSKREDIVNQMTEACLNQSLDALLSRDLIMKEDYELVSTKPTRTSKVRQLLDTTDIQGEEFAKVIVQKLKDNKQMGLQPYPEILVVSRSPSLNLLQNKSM
Sequence of Hck(h) (P08631 whole entry): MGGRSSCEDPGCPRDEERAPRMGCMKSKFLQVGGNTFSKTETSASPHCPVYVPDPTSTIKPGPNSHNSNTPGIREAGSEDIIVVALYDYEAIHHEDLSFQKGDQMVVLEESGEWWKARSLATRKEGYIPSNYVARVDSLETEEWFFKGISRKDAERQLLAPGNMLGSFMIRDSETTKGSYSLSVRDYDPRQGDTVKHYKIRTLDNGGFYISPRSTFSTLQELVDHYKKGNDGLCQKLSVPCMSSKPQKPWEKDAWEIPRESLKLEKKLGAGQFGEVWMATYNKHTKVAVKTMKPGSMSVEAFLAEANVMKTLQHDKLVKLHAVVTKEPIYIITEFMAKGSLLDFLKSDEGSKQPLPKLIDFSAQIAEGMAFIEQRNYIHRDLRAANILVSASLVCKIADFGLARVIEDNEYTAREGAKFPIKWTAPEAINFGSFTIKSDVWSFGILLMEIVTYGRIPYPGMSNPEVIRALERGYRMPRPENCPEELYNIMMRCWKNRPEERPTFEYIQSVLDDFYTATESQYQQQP
Sequence of cKit(h) (P10721 26-976): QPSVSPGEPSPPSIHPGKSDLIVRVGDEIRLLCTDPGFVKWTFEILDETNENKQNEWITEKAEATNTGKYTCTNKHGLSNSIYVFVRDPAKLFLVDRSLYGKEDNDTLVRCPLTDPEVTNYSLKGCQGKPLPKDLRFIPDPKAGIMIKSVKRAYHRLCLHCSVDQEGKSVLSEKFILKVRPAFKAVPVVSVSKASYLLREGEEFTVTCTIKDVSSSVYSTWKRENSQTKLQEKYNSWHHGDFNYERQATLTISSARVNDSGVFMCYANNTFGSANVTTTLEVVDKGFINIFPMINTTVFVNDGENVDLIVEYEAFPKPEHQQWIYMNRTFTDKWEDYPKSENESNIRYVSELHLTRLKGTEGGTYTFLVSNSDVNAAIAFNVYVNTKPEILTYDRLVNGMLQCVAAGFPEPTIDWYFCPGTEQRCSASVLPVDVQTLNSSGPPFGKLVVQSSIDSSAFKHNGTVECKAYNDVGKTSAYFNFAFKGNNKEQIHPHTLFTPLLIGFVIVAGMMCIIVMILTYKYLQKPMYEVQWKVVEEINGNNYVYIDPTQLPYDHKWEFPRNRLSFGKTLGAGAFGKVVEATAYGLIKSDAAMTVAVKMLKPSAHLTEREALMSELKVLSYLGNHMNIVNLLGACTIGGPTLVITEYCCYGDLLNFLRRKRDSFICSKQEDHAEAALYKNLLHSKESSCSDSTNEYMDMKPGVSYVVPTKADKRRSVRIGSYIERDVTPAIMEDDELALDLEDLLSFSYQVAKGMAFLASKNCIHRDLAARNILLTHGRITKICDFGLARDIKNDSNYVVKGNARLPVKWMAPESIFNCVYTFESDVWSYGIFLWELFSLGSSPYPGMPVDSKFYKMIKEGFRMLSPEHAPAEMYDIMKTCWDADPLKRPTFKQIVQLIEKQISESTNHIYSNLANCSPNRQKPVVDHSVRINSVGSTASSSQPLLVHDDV

solubility (Turbidimetric solubility)	inhibition at 1 µM (IGF-1R(h))	inhibition at 1 µM (eEF-2K(h))	inhibition at 1 µM (ULK2(h))	inhibition at 1 µM (PKCβII(h))	inhibition at 1 µM (EphB4(h))	inhibition at 1 µM (DDR2(h))	inhibition at 1 µM (PKG1α(h))	inhibition at 1 µM (MKK6(h))	inhibition at 1 µM (IRR(h))	inhibition at 1 µM (Hck(h))	inhibition at 1 µM (RIPK2(h))	inhibition at 1 µM (TLK2(h))	inhibition at 1 µM (EphA5(h))	inhibition at 1 µM (LKB1(h))	inhibition at 1 µM (FAK(h))	inhibition at 1 µM (PAK5(h))	inhibition at 1 µM (cKit(h))	SMILES	number of kinases inhibited by >80% (panel of 231 kinases)	effect on TNFα-stimulated p105 (Ser932) phosphorylation [1]	also measured
< 1 µM	14%	-7%	-4%	-1%	25%	-17%	30%	2%	1%	16%	19%	0%	8%	17%	8%	10%	9%	Nc1n[nH]c2ccc(-c3ccnc4[nH]c(-c5cccc(OCc6ccccc6)c5)cc34)cc12 [Compound 5r [SU1261]]	10 kinases	no significant concentration-dependent inhibition	inhibition at 1 µM (Mnk2(h)): 26%; inhibition at 1 µM (Pyk2(h)): 22%; effect on TNFα-stimulated IκBα degradation [2]: did not impact
20 µM (≈ 8.65 µg/mL)	–	–	–	–	–	–	–	–	–	–	–	–	–	–	–	–	–	Nc1n[nH]c2ccc(-c3ccnc4[nH]c(-c5ccnc(OCc6ccccc6)c5)cc34)cc12 [Compound 6g [SU1349]]	–	no impact	effect on TNFα-stimulated IκBα degradation [2]: no impact; impact on IKKβ-mediated canonical NF-κB signalling ([2]; prostate cancer cell line (PC-3M), at 10 μM): no detectable impact
–	64%	0%	2%	9%	53%	16%	29%	17%	26%	21%	54%	-8%	19%	15%	35%	16%	51%	Nc1n[nH]c2ccc(-c3ccnc4[nH]c(-c5ccccc5)cc34)cc12 [Compound 4]	44 kinases	–	inhibition at 1 µM (Mnk2(h)): 67%; inhibition at 1 µM (Pyk2(h)): 63%
